Measurements as given in article PMC6093661, “Vitamin E hydroquinone is an endogenous regulator of ferroptosis via redox control of 15-lipoxygenase” (PLoS ONE, 2018).
“And” between values parts separate entries of the source, which are not always exact repeats. Equal entries are not always repeated. Where two headings read alike, the source gives them in different places.

Legend:
Q7 cells [1] = experiment: RSL3-induced loss of Q7 cell viability; type: cell-based, mouse
Description: Ferroptotic cell death was induced in Q7 cells using RSL3, a GPX4 inhibitor previously described. All four stereoisomers of RSL3 were synthesized and purified using published methods. […] To assess compound rescue activity and potency from ferroptotic cell death, Q7 cells were seeded in clear bottom, black wall tissue culture-treated polystyrene plates (Corning) using either an electronic multichannel pipette or a Multidrop™ Combi Reagent Dispenser (ThermoFisher Scientific). Cells were incubated for 5 hours at 33°C in an atmosphere with 95% humidity and 5% CO2 to allow attachment of the cells to the culture plate. Test compounds were administered to the desired final concentrations using a D300e Digital Dispenser (Tecan), followed within 15 minutes by RSL3 (2 μM final concentration). DMSO diluent was back-filled to a final concentration of 0.3% (v/v). Cell plates were incubated at 33°C (5% CO2, 95% humidity) for 18 hours. After a 15-minute equilibration to room temperature, cell number/viability was assessed using the CellTiter-Glo® 2.0 Cell Titer Glo 2.0 reagent (a luminescence-based assay to quantitate ATP; Promega) which was added using the Multidrop™ Combi Reagent Dispenser (Thermo Fisher Scientific). After 15 minutes of incubation at room temperature, the luminescence (100 ms integration time) per well was determined using the BioTek Synergy plate reader. Data was imported into and analyzed using Dotmatics Studies software suite. EC50 values for each compound were estimated using standard four-parameter curve fitting algorithms. pEC50 is defined as negative-log10 (EC50) in M units.

[2] = test system: 15-HETE release from Q7 cells; experiment: Targeted arachidonate metabolite release cellular assay (RSL3-treated Q7 cells); type: cell-based, mouse
Description: Ferroptosis was initiated by RSL3 (2 μM final concentration) in Q7 cells as described above. The protective activity of co-treated compounds was assessed also as described above. Four to five hours after RSL3 treatment, the conditioned medium was collected into 1.2-mL cluster tubes containing ice-cold acetonitrile at a ratio of 1:2. Tubes were snap frozen on dry ice and stored at -80°C.
Prior to analysis, samples were thawed on wet ice and then vortexed briefly. Samples were centrifuged at 4000 rpm for 15min at 4°C. Supernatant (40 μL) was transferred to a 96-well injection plate and 10 μL of both internal standard and HPLC grade water were added. A Shimadzu Nexera MP system coupled to a Sciex 6500 Qtrap and configured for micro-flow was used to analyze all samples. Samples were maintained at 4°C in the Nexera MP autosampler for the duration of the analytical run.
A Thermo Gold-C8 column (1.9 μm, 1.0 x 100 mm) operated at 45°C was used for chromatographic separation. The total run time of the liquid chromatography method was 10 min. Mobile phase A consisted of water with 0.1% formic acid. Mobile phase B was composed of 0.1% formic acid in 3:1 acetonitrile:isopropyl alcohol. Gradient elution was employed, with mobile phase B being ramped from 5% at 0min, to 50% at 2 min, and finally 98% at 7.5 min. Electrospray conditions for the μLC-ESI-MS/MS method were optimized for a flow rate of 125 μL/min and were as follows: Ion spray voltage was set to -4500 V, temperature of 250°C, curtain gas of 20, CAD gas of 10, and ion source gas 1 and 2 of 20 and 40 psi, respectively. Analyzer parameters were optimized for each compound using a combination of manual tuning and compound optimization. The following MRM transitions were used to quantify concentrations of 15-HETE, 12-HETE and Arachidonic Acid (AA). 15-HETE: 319→219; 12-HETE: 319→179; AA: 303→259.

[3] = ORAC (oxygen radical absorbance capacity) assay; settings: average of 25 and 12.5 μM compound; mean, SEM, n = 6
Description: ORAC assay kits were purchased from Cell Biolabs. Assays were performed per the manufacturer’s instructions for lipophilic samples with minor modifications. DMSO stock solutions of compounds were diluted in an anaerobic glovebox to final concentrations of 25 and 12.5 μM in triplicate. A standard curve of Trolox® between 0–100 μM in triplicate per concentration was also generated on each assay plate. Diluted compounds and standards were removed from the glovebox and reactions initiated by addition of aerobic fluorescein reagent and radical initiator. Fluorescein fluorescence was monitored at excitation wavelength of 480 nm and emission wavelength of 520 nm every minute for one hour. AUC analysis was performed as described in the kit protocol. The “Trolox equivalents” at each concentration of test compound were calculated and the average Trolox equivalents at the two compound concentrations are presented. The errors were determined by propagating errors from the SEMs of the triplicate determinations to the averages across the two triplicate determinations.

Q7 cells [4] = experiment: Cellular lipid oxidation assay (BODIPY 581/591 C11, RSL3-treated Q7 cells); type: cell-based, mouse; settings: RSL3 2 μM, 6-point titration, time-lapse microscopy
Description: Ferroptosis was induced by RSL3 (2 μM final concentration) in Q7 cells as described above. The protective activity of co-treated compounds was assessed also as described above. The rate of cellular lipid oxidation after GPX4 inhibition was assessed by monitoring the time-dependent changes in green fluorescence of cells pre-labeled with BODIPY™ 581/591 C11 dye (5 μM, 30-minute labeling period; Thermo Fisher/Invitrogen) using the IncuCyte S3 live-cell imaging apparatus (Sartorius) using a 10x objective. Cells (three images per field; at least three replicate wells per condition) were imaged once hourly for up to 18 hours after compound and RSL3 addition. Quantification of cell images was performed using the IncuCyte Zoom software using the Basic Analyzer tool which utilized an algorithm that calculated the total green-positive area per well where “green-positive” was defined as 1.45 times the local background-subtracted fluorescent signal. After a 2-3-hour lag period post-RSL3 treatment, the cellular green fluorescence signal began increasing. The rate of change in total green-positive area per well from 3–9 hours post-compound treatment was calculated, then expressed relative to that observed in the RSL3-only control treatment group, which was defined as 100%.

[5] = target: T1, Rabbit 15-lipoxygenase (rLOX15) (Oryctolagus cuniculus, UniProt P12530); experiment: Lipoxygenase enzyme inhibition assay; type: biochemical; settings: for inhibition of rabbit 15-LO enzyme activity: arachidonic acid as substrate, up to 100 μM; for IC50 / activity at 100 µM: rabbit 15-LO; for IC50: 50 μM arachidonic acid substrate; for activity at 100 µM: compound 100 μM, read-out: 15-Lipoxygenase Enzyme Assay % activity at 100 μM
T1 construct: purchased Enzo Life Sciences, Inc. BML-PL015
T1 sequence (P12530 1-663): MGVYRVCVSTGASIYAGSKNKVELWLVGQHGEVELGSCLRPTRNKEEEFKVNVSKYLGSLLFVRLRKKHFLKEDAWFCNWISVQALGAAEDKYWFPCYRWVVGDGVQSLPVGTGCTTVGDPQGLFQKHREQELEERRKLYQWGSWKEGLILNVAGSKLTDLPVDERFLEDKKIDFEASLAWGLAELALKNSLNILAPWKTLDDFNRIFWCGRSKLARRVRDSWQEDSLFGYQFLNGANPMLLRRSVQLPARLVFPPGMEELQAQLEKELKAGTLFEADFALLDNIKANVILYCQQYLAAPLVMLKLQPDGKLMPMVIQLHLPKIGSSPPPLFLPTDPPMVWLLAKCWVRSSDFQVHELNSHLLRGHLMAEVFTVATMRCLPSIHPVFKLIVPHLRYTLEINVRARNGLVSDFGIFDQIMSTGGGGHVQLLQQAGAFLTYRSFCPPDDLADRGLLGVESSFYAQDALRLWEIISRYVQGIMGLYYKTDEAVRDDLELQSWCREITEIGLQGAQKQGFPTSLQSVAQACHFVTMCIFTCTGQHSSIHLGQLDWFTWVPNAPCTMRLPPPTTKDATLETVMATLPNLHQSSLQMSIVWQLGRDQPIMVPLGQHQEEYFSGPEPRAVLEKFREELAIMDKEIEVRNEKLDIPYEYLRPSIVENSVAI
Description: Rabbit 15-lipoxygenase (rLOX15, part number BML-PL015, lot number 3-P9009a) was obtained from Enzo Life Sciences, Inc. Sodium cholate (part number C6445, lot number 094K0209) was obtained from Sigma-Aldrich.
Stock solutions of test compounds were prepared in DMSO and then diluted to final assay concentrations in cholate mix such that final cholate and DMSO concentrations were maintained at 0.2%.

[6] = Radical-trapping antioxidant (RTA) activity assay in DOPC liposomes; settings: for Radical Trapping Assay AUC (Rel. Control): 50 μM compound, 2 mol% in DOPC liposomes, BODIPY 581/591 C11 quenching, liposome-only control = 1
[7] = test system: Mouse striatal Q7 cells (STHdhQ7/Q7); experiment: RSL3 ferroptosis cell rescue (cellular survival assay, CellTiter-Glo)
Q7 cells [8] = experiment: Intracellular quantification of αT, αTQ and αTHQ in Q7 cells (LC-MS/MS, succinate capping); settings: αTQ 10 μM, 24 h
Q7 cells [9] = settings: mouse
[10] = Mus musculus, 18 h, read-out: RSL3 Ferroptosis Cell Assay Average EC50, Q7 cells, RSL3 2 μM, 18 h co-treatment, CellTiter-Glo 2.0
[11] = read-out: RSL3 Ferroptosis Cell Assay Average EC50, Q7 cells, RSL3 2 μM, 18 h co-treatment, CellTiter-Glo 2.0

| SMILES | ORAC Antioxidant Activity Assay Trolox Equiv. [3] | effect on RSL3-induced lipid oxidation (BODIPY 581/591 C11 oxidation) (Q7 cells [4]) | inhibition of rabbit 15-LO enzyme activity [5] | IC50 [5] [nM] | activity at 100 µM [5] [%] | Radical Trapping Assay AUC (Rel. Control) [6] | EC50 [7, 10] [nM] | EC50 [7, 11] [nM] | further results |
| --- | --- | --- | --- | --- | --- | --- | --- | --- | --- |
| COC(=O)c1ccc([C@H]2c3[nH]c4ccccc4c3C[C@H](C(=O)OC)N2C(=O)CCl)cc1 [(1S,3R)-RSL3] |  |  |  |  |  |  |  |  | reduction of cell number/viability (Q7 cells [1]; RSL3 2 μM, 18 h, typical): > 80%; onset of cell death after RSL3 addition (Q7 cells [1]; RSL3 ≥1 μM): ~ 5 h; loss of cell viability (Q7 cells [1]; RSL3 ≥1 μM, 18 h after treatment): 80–95%; IC50 (Q7 cells [1]; most potent single stereoisomer of RSL3, read-out: IC50 for inhibition of Q7 cell viability): ~200 nM |
| Cc1c(C)c2c(c(C)c1O)CC[C@@](C)(CCC[C@H](C)CCC[C@H](C)CCCC(C)C)O2 [αT, α-tocopherol, reference compound] | 0.073 Trolox Equiv. and 0.073 ± 0.008 Trolox Equiv. | prevented | did not | > 100000 | 78 | 5.123 | 5160 | 5200 ± 2800 | reduction of RSL3-induced 15-HETE production ([2]; RSL3 co-treatment, compound 10 μM): 19%; RTA AUC fold greater than αTQ and αTHQ ([6]; DOPC liposomes, AUC relative to liposome only control): 2.5–4 fold |
| CC1=C(C)C(=O)C(CC[C@](C)(O)CCC[C@H](C)CCC[C@H](C)CCCC(C)C)=C(C)C1=O [αTQ, α-tocopherol quinone] | 0.044 Trolox Equiv. | prevented | did not | > 100000 | 75 | 1.217 | 233 | 230 ± 100 | IC50 ([2]; Mus musculus, RSL3 2 μM, conditioned medium 4-5 h, read-out: IC50 for RSL3-induced cellular release of 15-HETE): 600 nM; effect on 12-HETE levels ([2]; RSL3, compound 5 μM): not altered; effect on cellular or released AA levels ([2]; RSL3, compound 5 μM): no effect; effect on RSL3-dependent induction of cellular and released 15-HETE ([2]; compound 5 μM): inhibited; cellular exposure of αT after αTQ supplementation (back-conversion) (Q7 cells [8]): unaffected; cellular αTQ exposure after αTQ supplementation (Q7 cells [8]): over 250 μM; fold increase in cellular αTHQ after αTQ supplementation (Q7 cells [9]): > 600 fold; fold increase in cellular αTQ after αTQ supplementation (Q7 cells [9]): > 300 fold; fold more potent than αT in preventing ferroptotic cell death ([7]; Q7 cells, RSL3, EC50 ratio vs αT): 22 fold |
